Common to all, as to assay type: cell-based, HAdV-5
Test [1] concerns HAdV5-GFP. Put plainly: Plaque assay (inhibition of HAdV plaque formation). The following applies: for Selectivity index (SI): ratio of CC50 to IC50 in plaque assay; for inhibition at 10 µM: read-out: Plaque Assay (%) Inhibition (10 μM); for IC50: read-out: Plaque Assay IC50 (μM), HAdV5-GFP, low MOI, 293β5 cell line. The method in brief: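 Cells at 80-90% confluency infected with HAdV5-GFP at 0.06 vp/cell, rocked 2 h at 37° C, then washed with PBS. Compounds tested at 10 μM and in dose-response from 10 to 0.3 μM, included in the post-infection mixture.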

In test [2] the test system is HAdV5-GFP. Put plainly: Entry assay (HAdV5-mediated GFP expression). The following applies: for inhibition at 50 µM: read-out: (%) Inhibition Entry Assay (50 μM). The method in brief:
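Human A549 cells (3×10^5/well) infected with HAdV5-GFP at 2000 vp/cell with compounds at 50 μM or in dose-response, in triplicate. Incubation 48 h at 37° C., 5% CO2. Standard infection curve from 2-fold virus dilutions without compound run in parallel.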

For test [3], the system named is wild-type HAdV5. Put plainly: Nuclear-associated HAdV genomes (real-time PCR).
Test [4] concerns wild-type HAdV5. Put plainly: HAdV DNA quantification by real-time PCR (DNA replication). To be noted: 24 h. (In general: Real-time PCR tracks product formation cycle by cycle.)
The mark [5] stands for this setting: A549, read-out: IC50 Entry Assay (μM), HAdV5-GFP, high MOI, A549 cell line.
The mark [6] stands for this setting: FIG. 3, 45 min post infection, concentrations by CC50 (2-50 μM).
[7] abbreviates: FIG. 4, concentrations by CC50 (2-50 μM).

These results are taken from patent US20230140290A1, “SALICYLAMIDE DERIVATIVES AND RELATED METHODS OF MAKING” (THE BOARD OF REGENTS OF THE UNIVERSITY OF TEXAS SY, priority 2020, published 2023).

Bounds are passed on as bounds.

A word on the inhibition: it is how much of the control response was suppressed. Broadly, the IC50 is the concentration that gives 50% inhibition. On to `O=C(Nc1ccc([N+](=O)[O-])cc1F)c1cc(Cl)ccc1O` [Compound 11, 5-Chloro-N-(2-fluoro-4-nitrophenyl)-2-hydroxybenzamide], for which, in test [1], the “Selectivity index (SI)” value is reported as 218.2, the inhibition at 10 µM turned out to be 98.7 ± 1.9% and the IC50 came to 0.05 µM. For the same compound, the inhibition at 50 µM in test [2] (A549, 48 h) came to 92.4 ± 0.2%. Also, the IC50 in test [2] (setting [5]) was 1.57 ± 0.97 µM. The “amount of nuclear-associated HAdV genomes versus DMSO” value in test [3] (setting [6]) is “partially inhibited”. In addition, in test [4] (setting [7]), the “inhibition of HAdV-5 DNA replication (qPCR)” value (“inhibition … (qPCR)” for short) is given as “low inhibition”.

For `CC1(Nc2ccc(NC(=O)c3cc(Cl)ccc3O)c(Cl)c2)CCCC1` [Compound 87, 5-Chloro-N-(2-chloro-4-((1-methylcyclopentyl)amino)phenyl)-2-hydroxybenzamide], in test [1], the “Selectivity index (SI)” value is on record as 580.7, the inhibition at 10 µM stood at 100% and the concentration for half-maximal inhibition (IC50) amounted to 0.27 µM. The inhibition at 50 µM in test [2] (A549, 48 h) was found to be 85.4%. In addition, in test [2] (setting [5]), the IC50 is 15.2 to 30.8 µM. The same compound showed a half-inhibitory concentration (IC50) in test [2] ({}) of 15.2 ± 5.1 µM. The “amount of nuclear-associated HAdV genomes versus DMSO” value in test [3] (FIG. 5A, 45 min post-infection, 10-fold plaque IC50) is on record as “partially inhibited”. In addition, in test [4] (FIG. 6A, 10-fold plaque IC50), the “inhibition … (qPCR)” value is given as “moderate inhibition”.

For the compound `O=C(N[C@H](Cc1ccccc1)C(=O)Nc1ccc([N+](=O)[O-])cc1Cl)c1cc(Cl)ccc1O` [Compound 60, (R)-5-Chloro-N-(1-((2-chloro-4-nitrophenyl)amino)-1-oxo-3-phenylpropan-2-yl)-2-hydroxybenzamide], in test [1], the “Selectivity index (SI)” value worked out at 259.7, the inhibition at 10 µM was found to be 100% and the IC50 worked out at 0.3 µM. For the same compound, the inhibition at 50 µM in test [2] (A549, 48 h) worked out at 68.6%. Also, in test [2] (setting [5]), the IC50 came to 9.7 µM. Further, in test [3] (setting [6]), the “amount of nuclear-associated HAdV genomes versus DMSO” value is given as “partially inhibited”. The “inhibition … (qPCR)” value in test [4] (setting [7]) is given as “significant (p≤0.0001) inhibitory activity”.

As to `O=C(Nc1cc(F)cc(C(F)(F)F)c1)c1cc(Cl)ccc1O` [Compound 17, 5-Chloro-N-(3-fluoro-5-(trifluoromethyl)phenyl)-2-hydroxybenzamide], in test [1], the “Selectivity index (SI)” value is on record as 666.7 and the inhibition at 10 µM turned out to be 100%. Further, the inhibition at 50 µM in test [2] (A549, 48 h) was 100%. Moreover, the IC50 in test [2] (setting [5]) turned out to be 2.23 ± 0.58 µM. Moreover, in test [3] (setting [6]), the “amount of nuclear-associated HAdV genomes versus DMSO” value was “no significant differences”. The “inhibition … (qPCR)” value in test [4] (setting [7]) is listed as “low inhibition”.

As to `CC(C)[C@H](NC(=O)c1cc(Cl)ccc1O)C(=O)Nc1ccc([N+](=O)[O-])cc1Cl` [Compound 58, (S)-5-Chloro-N-(1-((2-chloro-4-nitrophenyl)amino)-3-methyl-1-oxobutan-2-yl)-2-hydroxybenzamide], in test [1], the “Selectivity index (SI)” value was found to be 444.4 and the inhibition at 10 µM was found to be 100%. Moreover, the inhibition at 50 µM in test [2] (A549, 48 h) is 81.8%. Besides, the IC50 in test [2] (setting [5]) is 11.2 µM. In test [3] (setting [6]), the “amount of nuclear-associated HAdV genomes versus DMSO” value is reported as “no significant differences”. Further, in test [4] (setting [7]), the “inhibition … (qPCR)” value was “low inhibition”.

Broadly, the EC50 is the concentration giving half of the maximal effect. Take `O=C(NCC1CCCCC1)c1cc(Cl)ccc1O` [Compound 161, 5-Chloro-N-(cyclohexylmethyl)-2-hydroxybenzamide]: the “Selectivity index (SI)” value in test [1] is given as > 100. Besides, the 50% effective concentration (EC50) came to 0.78 µM in test [1] (read-out: EC50 (plaque assay)) and 12.3 µM in test [2] (A549, 48 h, read-out: EC50 (entry assay, as worded in text)). For the same compound, the inhibition at 10 µM in test [1] was found to be 100%. For the same compound, the inhibition at 50 µM in test [2] (A549, 48 h) came to 98.6 ± 14.8%. The half-inhibitory concentration (IC50) in test [2] (setting [5]) was determined as 12.3 ± 4.8 µM. The “inhibition of accessibility of HAdV DNA to the nucleus” value in test [3] (FIG. 5B, 45 min post-infection, 10-fold plaque IC50) is “more than 99%”. The inhibition at 7.8 µM in test [4] (read-out: inhibition of HAdV-5 DNA replication (qPCR)) is 50%.
